Columns and labels:
duck salad = test: Test B flood test duck salad; format: in vivo, Heteranthera limosa; settings: Pre-emergence
Outline: (§1)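 Plants were grown to the 2-leaf stage before treatment with test chemical, then held in a greenhouse for twelve to sixteen days. Injury was visually rated against untreated controls on a 0–10 scale, where 0 is no effect and 10 is complete control.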

rape = test: Test B pre/postemergence rape; format: in vivo, Brassica napus; settings: for Rape plant response rating: scale of 0 to 10 where 0 is no effect and 10 is complete control
Outline: (§2)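 Test chemicals in a non-phytotoxic solvent mixture with surfactant were sprayed preemergence onto planted seeds and postemergence onto plants 2 to 18 cm tall (1- to 4-leaf stage). After twelve to sixteen days in a greenhouse, injury was visually rated against untreated controls from 0 (no effect) to 10 (complete control).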

surinam grass = test: Test B pre/postemergence surinam grass; format: in vivo, Brachiaria decumbens; settings: for B. signalgrass plant response rating: scale of 0 to 10 where 0 is no effect and 10 is complete control
Outline: as §2

wheat = test: Test B pre/postemergence wheat; format: in vivo, Triticum aestivum; settings: for Wheat plant response rating: scale of 0 to 10 where 0 is no effect and 10 is complete control
Outline: as §2

soybean = test: Test B pre/postemergence soybean; format: in vivo, Glycine max; settings: for Soybean plant response rating: scale of 0 to 10 where 0 is no effect and 10 is complete control
Outline: as §2

corn = test: Test B pre/postemergence corn; format: in vivo, Zea mays; settings: for Corn plant response rating: scale of 0 to 10 where 0 is no effect and 10 is complete control
Outline: as §2

smallflower flatsedge = test: Test B flood test smallflower flatsedge; format: in vivo, Cyperus difformis; settings: Pre-emergence
Outline: as §1

rice = test: Test B flood test rice; format: in vivo, Oryza sativa; settings: Pre-emergence
Outline: as §1

bamyardgrass = test: Test B flood test barnyardgrass; format: in vivo, Echinochloa crus-galli; settings: Pre-emergence
Outline: as §1

purple nutsedge = test: Test B pre/postemergence purple nutsedge; format: in vivo, Cyperus rotundus; settings: for Nutsedge plant response rating: scale of 0 to 10 where 0 is no effect and 10 is complete control
Outline: as §2

bedstraw = test: Test B pre/postemergence bedstraw; format: in vivo, Galium aparine; settings: Preemergence; for Bedstraw plant response rating: scale of 0 to 10 where 0 is no effect and 10 is complete control
Outline: as §2

wild oat = test: Test B pre/postemergence wild oat; format: in vivo, Avena fatua; settings: for Wild oats plant response rating: scale of 0 to 10 where 0 is no effect and 10 is complete control
Outline: as §2

sugar beet = test: Test B pre/postemergence sugar beet; format: in vivo, Beta vulgaris; settings: for Sugarbeets plant response rating: scale of 0 to 10 where 0 is no effect and 10 is complete control
Outline: as §2

blackgrass = test: Test B pre/postemergence blackgrass; format: in vivo, Alopecurus myosuroides; settings: for Blackgrass plant response rating: scale of 0 to 10 where 0 is no effect and 10 is complete control
Outline: as §2

velvetleaf = test: Test B pre/postemergence velvetleaf; format: in vivo, Abutilon theophrasti; settings: for Velvetleaf plant response rating: scale of 0 to 10 where 0 is no effect and 10 is complete control
Outline: as §2

cocklebur = test: Test B pre/postemergence cocklebur; format: in vivo, Xanthium strumarium; settings: for Cocklebur plant response rating: scale of 0 to 10 where 0 is no effect and 10 is complete control
Outline: as §2

crabgrass = test: Test B pre/postemergence crabgrass; format: in vivo, Digitaria sanguinalis; settings: for Crabgrass plant response rating: scale of 0 to 10 where 0 is no effect and 10 is complete control
Outline: as §2

[1] = Rate 62 g/ha, flood test species, visual evaluation after twelve to sixteen days
[2] = Rate 125 g/ha, flood test species, scale 0 to 10 where 0 is no effect and 10 is complete control
[3] = Rate 250 g/ha, flood-test species, scale 0 to 10, 0 is no effect, 10 is complete control
[4] = Rate 500 g/ha, flood test species, scale 0 to 10 (0 no effect, 10 complete control)
[5] = Postemergence, Rate 125 g/ha, scale 0 to 10, 0 is no effect, 10 is complete control
[6] = Postemergence, Rate 250 g/ha, scale 0 to 10, 0 is no effect, 10 is complete control
[7] = Preemergence, Rate 62 g/ha, scale 0 to 10 (0 no effect, 10 complete control)
[8] = Rate 500 g/ha, Postemergence, scale 0 to 10, 0 no effect, 10 complete control

In the case of `CC(C)N(C(=O)n1oc(=O)n(C(C)CCl)c1=O)c1ccc(F)cc1` (stereo not shown) [Compound 367], the “Plant response rating, Ducksalad (0 to 10 scale, 0 is no effect, 10 is complete control)” value (duck salad; [1]) is reported as 0, the “Ducksalad plant response rating” value (duck salad; [2]) is reported as 0 and the “Ducksalad plant response rating” value (duck salad; [3]) is reported as 0. The “Ducksalad plant response rating” value (duck salad; [4]) was 0, the “Plant response rating, Rape” value (rape; [5]) was 0 and the “Plant response rating, Rape” value (rape; [6]) was 0. The “Plant response rating, Rape” value (rape; [7]) was 0, the “Rape plant response rating (0 to 10 scale)” value (rape; Preemergence, Rate 125 g/ha) was 3 and the “Rape plant response rating” value (rape; Preemergence, Rate 250 g/ha) was 5. For the same compound, the “Rape plant response rating” value (rape; Preemergence, Rate 500 g/ha) was 10, the “Rape plant response rating” value (rape; Rate 62 g/ha, Postemergence) was 0 and the “Plant response rating, Rape” value (rape; [8]) was 4. The “Plant response rating, B. signalgrass” value (surinam grass; [5]) was 0, the “Plant response rating, B. signalgrass” value (surinam grass; [6]) was 0 and the “Plant response rating, B. signalgrass” value (surinam grass; [7]) was 0. The “B. signalgrass plant response rating (0 to 10 scale, 0 is no effect, 10 is complete control)” value (surinam grass; Preemergence, Rate 125 g/ha) was 0, the “B. signalgrass plant response rating” value (surinam grass; Preemergence, Rate 250 g/ha) was 4 and the “B. signalgrass plant response rating” value (surinam grass; Preemergence, Rate 500 g/ha) was 5. For the same compound, the “B. signalgrass plant response rating” value (surinam grass; Rate 62 g/ha, Postemergence) was 0, the “Plant response rating, B. signalgrass” value (surinam grass; [8]) was 4 and the “Plant response rating, Wheat” value (wheat; [5]) was 0. For the same compound, the “Plant response rating, Wheat” value (wheat; [6]) was 0, the “Plant response rating, Wheat” value (wheat; [7]) was 0 and the “Wheat plant response rating (0 to 10 scale)” value (wheat; Preemergence, Rate 125 g/ha) was 0. For the same compound, the “Wheat plant response rating” value (wheat; Preemergence, Rate 250 g/ha) was 0, the “Wheat plant response rating” value (wheat; Preemergence, Rate 500 g/ha) was 0 and the “Wheat plant response rating” value (wheat; Rate 62 g/ha, Postemergence) was 0. For the same compound, the “Plant response rating, Wheat” value (wheat; [8]) was 6, the “Plant response rating, Soybean” value (soybean; [5]) was 1 and the “Plant response rating, Soybean” value (soybean; [6]) was 1. For the same compound, the “Plant response rating, Soybean” value (soybean; [7]) was 0, the “Soybean plant response rating (0 to 10 scale)” value (soybean; Preemergence, Rate 125 g/ha) was 0 and the “Soybean plant response rating” value (soybean; Preemergence, Rate 250 g/ha) was 0. For the same compound, the “Soybean plant response rating” value (soybean; Preemergence, Rate 500 g/ha) was 0, the “Soybean plant response rating” value (soybean; Rate 62 g/ha, Postemergence) was 0 and the “Plant response rating, Soybean” value (soybean; [8]) was 2. The “Plant response rating, Corn” value (corn; [5]) was 0, the “Plant response rating, Corn” value (corn; [6]) was 0 and the “Plant response rating, Corn” value (corn; [7]) was 0. The “Corn plant response rating (0 to 10 scale)” value (corn; Preemergence, Rate 125 g/ha) was 0, the “Corn plant response rating” value (corn; Preemergence, Rate 250 g/ha) was 2 and the “Corn plant response rating” value (corn; Preemergence, Rate 500 g/ha) was 5. For the same compound, the “Corn plant response rating” value (corn; Rate 62 g/ha, Postemergence) was 0, the “Plant response rating, Corn” value (corn; [8]) was 0 and the “Plant response rating, S. Flatsedge (0 to 10 scale, 0 is no effect, 10 is complete control)” value (smallflower flatsedge; [1]) was 0. For the same compound, the “S. Flatsedge plant response rating” value (smallflower flatsedge; [2]) was 0, the “S. Flatsedge plant response rating” value (smallflower flatsedge; [3]) was 0 and the “S. Flatsedge plant response rating” value (smallflower flatsedge; [4]) was 0. For the same compound, the “Plant response rating, Rice (0 to 10 scale, 0 is no effect, 10 is complete control)” value (rice; [1]) was 0, the “Rice plant response rating” value (rice; [2]) was 0 and the “Rice plant response rating” value (rice; [3]) was 0. For the same compound, the “Rice plant response rating” value (rice; [4]) was 0, the “Plant response rating, Barnyardgrass (0 to 10 scale, 0 is no effect, 10 is complete control)” value (bamyardgrass; [1]) was 0 and the “Barnyardgrass plant response rating” value (bamyardgrass; [2]) was 0. For the same compound, the “Barnyardgrass plant response rating” value (bamyardgrass; [3]) was 0, the “Barnyardgrass plant response rating” value (bamyardgrass; [4]) was 0 and the “Plant response rating, Nutsedge” value (purple nutsedge; [5]) was 0. For the same compound, the “Plant response rating, Nutsedge” value (purple nutsedge; [6]) was 0, the “Plant response rating, Nutsedge” value (purple nutsedge; [7]) was 0 and the “Nutsedge plant response rating (0 to 10 scale)” value (purple nutsedge; Preemergence, Rate 125 g/ha) was 0. The “Nutsedge plant response rating” value (purple nutsedge; Preemergence, Rate 250 g/ha) was 0, the “Nutsedge plant response rating” value (purple nutsedge; Preemergence, Rate 500 g/ha) was 0 and the “Nutsedge plant response rating” value (purple nutsedge; Rate 62 g/ha, Postemergence) was 0. The “Plant response rating, Nutsedge” value (purple nutsedge; [8]) was 3, the “Plant response rating, Bedstraw” value (bedstraw; Rate 62 g/ha, scale 0 to 10 (0 no effect, 10 complete control)) was 10 and the “Bedstraw plant response rating (0 to 10 scale)” value (bedstraw; Rate 125 g/ha) was 10. The “Bedstraw plant response rating” value (bedstraw; Rate 250 g/ha) was 10, the “Bedstraw plant response rating” value (bedstraw; Rate 500 g/ha) was 10 and the “Plant response rating, Wild oats” value (wild oat; [5]) was 0. For the same compound, the “Plant response rating, Wild oats” value (wild oat; [6]) was 0, the “Plant response rating, Wild oats” value (wild oat; [7]) was 0 and the “Wild oats plant response rating (0 to 10 scale)” value (wild oat; Preemergence, Rate 125 g/ha) was 3. For the same compound, the “Wild oats plant response rating” value (wild oat; Preemergence, Rate 250 g/ha) was 3, the “Wild oats plant response rating” value (wild oat; Preemergence, Rate 500 g/ha) was 7 and the “Wild oats plant response rating” value (wild oat; Rate 62 g/ha, Postemergence) was 0. For the same compound, the “Plant response rating, Wild oats” value (wild oat; [8]) was 8, the “Plant response rating, Sugarbeets” value (sugar beet; [5]) was 0 and the “Plant response rating, Sugarbeets” value (sugar beet; [6]) was 0. For the same compound, the “Plant response rating, Sugarbeets” value (sugar beet; [7]) was 2, the “Sugarbeets plant response rating (0 to 10 scale)” value (sugar beet; Preemergence, Rate 125 g/ha) was 4 and the “Sugarbeets plant response rating” value (sugar beet; Preemergence, Rate 250 g/ha) was 7. For the same compound, the “Sugarbeets plant response rating” value (sugar beet; Preemergence, Rate 500 g/ha) was 9, the “Sugarbeets plant response rating” value (sugar beet; Rate 62 g/ha, Postemergence) was 0 and the “Plant response rating, Sugarbeets” value (sugar beet; [8]) was 7. For the same compound, the “Plant response rating, Blackgrass” value (blackgrass; [5]) was 0, the “Plant response rating, Blackgrass” value (blackgrass; [6]) was 0 and the “Plant response rating, Blackgrass” value (blackgrass; [7]) was 2. The “Blackgrass plant response rating (0 to 10 scale)” value (blackgrass; Preemergence, Rate 125 g/ha) was 7, the “Blackgrass plant response rating” value (blackgrass; Preemergence, Rate 250 g/ha) was 8 and the “Blackgrass plant response rating” value (blackgrass; Preemergence, Rate 500 g/ha) was 10. The “Blackgrass plant response rating” value (blackgrass; Rate 62 g/ha, Postemergence) was 0, the “Plant response rating, Blackgrass” value (blackgrass; [8]) was 8 and the “Plant response rating, Velvetleaf” value (velvetleaf; [5]) was 2. The “Plant response rating, Velvetleaf” value (velvetleaf; [6]) was 2, the “Plant response rating, Velvetleaf” value (velvetleaf; [7]) was 3 and the “Velvetleaf plant response rating (0 to 10 scale)” value (velvetleaf; Preemergence, Rate 125 g/ha) was 3. The “Velvetleaf plant response rating” value (velvetleaf; Preemergence, Rate 250 g/ha) was 5, the “Velvetleaf plant response rating” value (velvetleaf; Preemergence, Rate 500 g/ha) was 6 and the “Velvetleaf plant response rating” value (velvetleaf; Rate 62 g/ha, Postemergence) was 0. For the same compound, the “Plant response rating, Velvetleaf” value (velvetleaf; [8]) was 3, the “Plant response rating, Cocklebur” value (cocklebur; [5]) was 0 and the “Plant response rating, Cocklebur” value (cocklebur; [6]) was 0. The “Plant response rating, Cocklebur” value (cocklebur; [7]) was 0, the “Cocklebur plant response rating (0 to 10 scale)” value (cocklebur; Preemergence, Rate 125 g/ha) was 0 and the “Cocklebur plant response rating” value (cocklebur; Preemergence, Rate 250 g/ha) was 0. For the same compound, the “Cocklebur plant response rating” value (cocklebur; Rate 62 g/ha, Postemergence) was 0, the “Plant response rating, Cocklebur” value (cocklebur; [8]) was 2 and the “Plant response rating, Crabgrass” value (crabgrass; [5]) was 2. For the same compound, the “Plant response rating, Crabgrass” value (crabgrass; [6]) was 8, the “Plant response rating, Crabgrass” value (crabgrass; [7]) was 6 and the “Crabgrass plant response rating (0 to 10 scale)” value (crabgrass; Preemergence, Rate 125 g/ha) was 9. For the same compound, the “Crabgrass plant response rating” value (crabgrass; Preemergence, Rate 250 g/ha) was 10, the “Crabgrass plant response rating” value (crabgrass; Preemergence, Rate 500 g/ha) was 10 and the “Crabgrass plant response rating” value (crabgrass; Rate 62 g/ha, Postemergence) was 0. The “Plant response rating, Crabgrass” value (crabgrass; [8]) was 8.
